{"source": "patent US20180312539A1", "about": "“METHODS FOR PREPARING HIGH THROUGHPUT PEPTIDOMIMETICS, ORALLY BIOAVAILABLE DRUGS AND COMPOSITIONS CONTAINING SAME” (University of Southern California, priority 2011, published 2018)", "key": {"[1]": {"design": "species or system C57BL6 mice", "settings": "mouse, in vivo, po, 10 mg/kg", "procedure": "The following peptides were synthesized for oral administration: […](FAM) (SEQ ID NO: 14), […](FAM)DK(Palmitoleic acid) (SEQ ID NO: 15), and […](FAM) (SEQ ID NO: 16), wherein FAM is a lysine derivative containing fluorescein. All peptides were cyclized from the side chain to lysine to the N-terminus as previously described. Anesthetized C57BL6 mice had peptide administered at a dose of 10 mg/kg by oral gavage. After administration, mice were removed from isoflurane. At various time points, blood samples were taken by orbital bleeding as previously described. Peaks were normalized to a 15 minute time point from mice that had peptide administered by IV injection.\nThe following peptides were synthesized for oral administration: […](FAM) (SEQ ID NO: 14), […](FAM) (SEQ ID NO: 16), […](FAM)DK(biotin) (SEQ ID NO: 38), and […](FAM)DK(Palmitoleic acid) (SEQ ID NO: 15). All peptides were cyclized from the side chain to lysine to the N-terminus as previously described in Millward, S. W. et al. (2007) ACS Chem. Biol. 2:625. Anesthetized C57BL6 mice had peptide administered at a dose of 10 mgs/Kg by oral gavage. After administration, mice were removed from isoflurane. At various time points, blood samples were taken by orbital bleeding as previously described. Peaks were normalized to a 20 minute time point from mice that had peptide administered by IV injection. Area under the curve was analyzed by Graphpad 5.0.\nIn addition to accessing intracellular targets in cell culture, deriving a simple modification that would facilitate oral bioavailability of peptidic ligands would be greatly beneficial for therapeutic development. Intestinal absorption of both fatty acids and biotin is nearly 100% efficient. Zempleni, J. and Mock, D. M. (1999) The American Journal of Clinical Nutrition 69:504. […] Applicants synthesized a protease resistant peptide with the sequence […]-mod (designated SUPR peptide) (SEQ ID NO: 50), where A is N-methyl alanine, the peptide is cyclized from lysine to the N-terminus, and K(mod) is lysine with a modified sidechain including either biotin or palmitoleic acid. Palmitoleic acid is a monounsaturated fatty acid chosen for its ability to bind human serum albumin, and its low melting point allowing for more favorable solubility of conjugated peptides as compared to […] fatty acid conjugates. This peptide was administered to mice at a dose of 10 mg/kg by oral gavage. At various time points, blood was taken from the mice by orbital bleeding. After processing, fluorescence was quantified and compared to the maximum signal obtained by IV injection of peptide at the same dose."}, "chymotrypsin": {"target": "T1, chymotrypsin (Bos taurus, UniProt P00766)", "T1 construct": "purchased Sigma", "assay": "Basic kinetic study with chymotrypsin (Km, Vmax)", "assay_type": "biochemical", "settings": "relative to cycGIBP", "description": "Crystal structures of serine proteases such as chymotrypsin and proteinase K show a hydrogen bonding network from the protease to the backbone of their substrate at four amino acid positions. Applicants postulated that N-methylation would result in a steric clash between the substrate and protease, thereby inhibiting the ability of the protease to bind to the peptide. In enzyme kinetic terms, this would result in an enhancement of Km. Additionally, several experiments have shown that proteases such as chymotrypsin, will not cut all of their predicted digest sites equally. It has long been observed that secondary structure will have an effect on proteolysis of a protein. However, there are now several independent examples of peptides with, with no predicted secondary structure that have predicted protease digest sites that are not proteolyzed. Applicants suspect that there may be some local sequence context that is inhibitor for proteolysis. This sequence context may either make it harder for the protease to bind its substrate (Km), or it may make it more difficult for the protease to perform catalysis on the substrate (Vmax). To investigate the origin of these enhancements, Applicants conducted a basic kinetic study with chymotrypsin. Proteinase K digested GIBP too quickly for this type of analysis but could be utilized in other systems and with other peptides."}}, "data": [{"smiles": "CSCC[C@@H]1NC(=O)CCCC(=O)NCCCC[C@@H](C(N)=O)NC(=O)[C@H](CO)NC(=O)[C@H](Cc2c[nH]c3ccccc23)NC(=O)[C@H](CCC(N)=O)NC(=O)[C@H](C)N(C)C(=O)[C@H](Cc2ccc(O)cc2)NC(=O)[C@H](CCC(=O)O)NC(=O)[C@H](Cc2ccc(O)cc2)NC(=O)[C@H](C)N(C)C(=O)[C@H](Cc2ccc(O)cc2)NC(=O)[C@H](Cc2ccccc2)NC1=O", "note": "[cycSUPR]", "values": [{"measurement": "oral uptake efficiency", "setting": "[1]", "result": "did not show any detectable oral uptake"}, {"measurement": "Km and Vmax of chymotrypsin digestion", "setting": "chymotrypsin", "result": "optimized for protease resistance relative to cycGIBP"}]}]}
